# Measured values reported in PMC3353862.
# Columns and labels:
# [1] = tested on: bacterial protein synthesis (aminoacylation/translation system); test: aminoacylation/translation (A/T) assay; type: biochemical; details: for IC50: A/T assay, Table 1, read-out: IC50
# E. faecalis = test: Broth microdilution MIC testing; type: cell-based, Enterococcus faecalis; details: for MIC E. fae: E. faecalis; for MIC: Enterococcus faecalis, read-out: MIC E. fae
# M. catarrhalis = test: Broth microdilution MIC testing; type: cell-based, Moraxella catarrhalis; details: for MIC: Moraxella catarrhalis
# H. influenzae = test: Broth microdilution MIC testing; type: cell-based, Haemophilus influenzae; details: for MIC H. flu: H. influenzae; for MIC: Haemophilus influenzae, read-out: MIC H. flu
# S. pneumoniae = test: Broth microdilution MIC testing; type: cell-based, Streptococcus pneumoniae; details: for MIC S. pneumo: S. pneumoniae; for MIC: Streptococcus pneumoniae, read-out: MIC S. pneumo
# S. aureus = test: Broth microdilution MIC testing; type: cell-based, Staphylococcus aureus; details: for MIC: Staphylococcus aureus, read-out: MIC S. aureus
# E. coli tolC mutants = test: Broth microdilution MIC testing; type: cell-based, Escherichia coli; details: for MIC E. coli tolC: E. coli tolC mutants; for MIC: Escherichia coli, read-out: MIC E. coli tolC
# [2] = tested on: E. coli modified with PMBN; test: Broth microdilution MIC testing; type: cell-based, Escherichia coli; details: for MIC E. coli +PMBP: E. coli modified with PMBN; for MIC: Escherichia coli, read-out: MIC E. coli +PMBP
# panel of bacteria = test: Antibacterial activity against the panel of bacteria (MIC, overall); type: cell-based; details: for antibacterial activity: panel of bacteria; on MIC (antibacterial activity grade): key: +: poor; ++: moderate; +++: good antibacterial activity
SMILES,IC50 [1],fold improvement in the IC50 ([1]; relative to the original two compounds),MIC E. fae (E. faecalis),MIC M. cat (M. catarrhalis),MIC H. flu (H. influenzae),MIC S. pneumo (S. pneumoniae),MIC S. aureus (S. aureus),MIC E. coli tolC (E. coli tolC mutants),MIC E. coli +PMBP [2],MIC (antibacterial activity grade) (panel of bacteria; Table 2),MIC (E. faecalis),MIC (M. catarrhalis),MIC (H. influenzae),MIC (S. pneumoniae),MIC (S. aureus),MIC (E. coli tolC mutants),MIC [2],MIC (antibacterial activity grade) (panel of bacteria; Table 3),biochemical activity in the A/T assay [1],antibacterial activity (panel of bacteria)
O=c1[nH]c(-c2ccccn2)nc2c1CN(Cc1cc3c(cc1Cl)OCO3)CC2 [Compound 323227],0.37 µM,three to sevenfold,> 128 µg/mL,8 µg/mL,32 µg/mL,64 µg/mL,> 128 µg/mL,64 µg/mL,> 128 µg/mL,+,–,–,–,–,–,–,–,–,–,–
CC(C)Oc1cccc(CN2CCc3nc(-c4ccccn4)[nH]c(=O)c3C2)c1 [Compound 323229],0.53 µM,–,64 µg/mL,0.5 µg/mL,8 µg/mL,8 µg/mL,64 µg/mL,16 µg/mL,16 µg/mL,++,–,–,–,–,–,–,–,–,–,–
Oc1nc(-c2ccccn2)nc2c1CCN(Cc1ccc(Cl)cc1)C2 [Compound 323338],64.4 µM,–,–,–,–,–,–,–,–,–,16 µg/mL,≤ 0.12 µg/mL,2 µg/mL,4 µg/mL,16 µg/mL,4 µg/mL,8 µg/mL,+++,–,–
O=c1[nH]c(-c2ccccn2)nc2c1CN(Cc1cc(Cl)cc(Cl)c1)CC2 [Compound 323339],19 µM,–,64 µg/mL,≤0.12 µg/mL,8 µg/mL,4 µg/mL,32 µg/mL,2 µg/mL,2 µg/mL,–,–,–,–,–,–,–,–,+++,–,–
O=c1[nH]c(-c2ccccn2)nc2c1CN(Cc1cc(Cl)ccc1Cl)CC2 [Compound 323340],> 300 µM,–,16 µg/mL,≤0.12 µg/mL,1 µg/mL,2 µg/mL,4 µg/mL,1 µg/mL,2 µg/mL,–,–,–,–,–,–,–,–,+++,no inhibitory effect,good antibacterial activity
O=c1[nH]c(-c2ccccn2)nc2c1CN(Cc1ccc(Br)cc1)CC2 [Compound 323341],41.4 µM,–,32 µg/mL,≤0.12 µg/mL,2 µg/mL,4 µg/mL,16 µg/mL,8 µg/mL,16 µg/mL,–,–,–,–,–,–,–,–,+++,–,–
O=c1[nH]c(-c2ccccn2)nc2c1CN(Cc1ccc(Cl)c(Cl)c1)CC2 [Compound 323342],28.9 µM,–,32 µg/mL,≤0.12 µg/mL,2 µg/mL,2 µg/mL,32 µg/mL,4 µg/mL,16 µg/mL,–,–,–,–,–,–,–,–,+++,–,–
O=c1[nH]c(-c2ccccn2)nc2c1CN(Cc1ccc(Cl)cc1Cl)CC2 [Compound 323343],8.24 µM,–,32 µg/mL,≤0.12 µg/mL,1 µg/mL,2 µg/mL,8 µg/mL,4 µg/mL,2 µg/mL,–,–,–,–,–,–,–,–,+++,–,–
O=c1[nH]c(-c2ccccn2)nc2c1CN(Cc1cccc(Cl)c1Cl)CC2 [Compound 323344],11.6 µM,–,32 µg/mL,≤0.12 µg/mL,4 µg/mL,2 µg/mL,8 µg/mL,1 µg/mL,4 µg/mL,–,–,–,–,–,–,–,–,+++,–,–
Cn1c(-c2ccccn2)nc2c(c1=O)CN(Cc1ccc(Cl)cc1)CC2 [Compound 323345],> 300 µM,–,–,–,–,–,–,–,–,–,> 128 µg/mL,32 µg/mL,64 µg/mL,128 µg/mL,> 128 µg/mL,128 µg/mL,128 µg/mL,–,abolished most biochemical and antibacterial activities,abolished most biochemical and antibacterial activities
Cc1nc(-c2nc3c(c(=O)[nH]2)CN(Cc2ccc(Cl)cc2)CC3)cs1 [Compound 323356],> 300 µM,–,–,–,–,–,–,–,–,–,128 µg/mL,8 µg/mL,64 µg/mL,128 µg/mL,> 128 µg/mL,128 µg/mL,> 128 µg/mL,–,abolished all biochemical activity,slight antibacterial activity
CC(C)Oc1ccc(CN2CCc3nc(-c4ccccn4)[nH]c(=O)c3C2)cc1 [Compound 323365],2.27 µM,–,16 µg/mL,≤0.12 µg/mL,4 µg/mL,4 µg/mL,8 µg/mL,4 µg/mL,4 µg/mL,–,–,–,–,–,–,–,–,+++,–,–
CC(C)(C)Oc1ccc(CN2CCc3nc(-c4ccccn4)[nH]c(=O)c3C2)cc1 [Compound 323366],2.47 µM,–,8 µg/mL,≤0.12 µg/mL,4 µg/mL,2 µg/mL,8 µg/mL,4 µg/mL,2 µg/mL,–,–,–,–,–,–,–,–,+++,–,–
O=c1[nH]c(-c2ccccn2)nc2c1CN(Cc1cccc(Br)c1Br)CC2 [Compound 323367],1.89 µM,–,4 µg/mL,≤0.12 µg/mL,1 µg/mL,2 µg/mL,8 µg/mL,2 µg/mL,8 µg/mL,–,–,–,–,–,–,–,–,+++,–,–
O=C(Nc1ccc(Cl)cc1)N1CCc2nc(-c3ccccn3)[nH]c(=O)c2C1 [Compound 323368],0.47 µM,–,–,–,–,–,–,–,–,–,> 128 µg/mL,> 128 µg/mL,> 128 µg/mL,> 128 µg/mL,> 128 µg/mL,> 128 µg/mL,> 128 µg/mL,–,–,complete loss of antibacterial activity
O=c1[nH]c(-c2ccccn2)nc2c1CN(CCc1ccc(Cl)cc1)CC2 [Compound 323370],0.28 µM,–,–,–,–,–,–,–,–,+++,16 µg/mL,≤ 0.12 µg/mL,2 µg/mL,4 µg/mL,16 µg/mL,8 µg/mL,8 µg/mL,–,–,–
CC1CN(Cc2ccc(Cl)cc2)Cc2c1nc(-c1ccccn1)[nH]c2=O (centres unmarked) [Compound 332054],7.4 µM,–,–,–,–,–,–,–,–,–,8 µg/mL,≤ 0.12 µg/mL,1 µg/mL,2 µg/mL,4 µg/mL,2 µg/mL,1 µg/mL,+++,–,–
O=c1[nH]c(-c2ccccn2)nc2c1CCN(Cc1ccc(Cl)cc1)CC2 [Compound 332058],0.56 µM,–,–,–,–,–,–,–,–,+++,16 µg/mL,≤ 0.12 µg/mL,0.5 µg/mL,2 µg/mL,16 µg/mL,4 µg/mL,4 µg/mL,–,–,–
